Test results published in patent US10633419B2, “Immunomodulators” (BRISTOL-MYERS SQUIBB COMPANY, priority 2014, dated 2020).
Where two headings read alike, the source gives them in different places. Starred links: 1 amine or outer side, 2 acyl side, 3 side chain; linkers in the order of their positions; H or OH if unused. Positions of bridges follow the written chain, without caps; N, C: chain ends. Non-standard residues stand in square brackets, D forms with d. Residues, ends and D or L forms follow the SMILES beside them. *: point of attachment. X6 = O=C(O)CCCCCCCCCCCCCCCCC(=O)N[C@@H](CCC(=O)NCCCOCCOCCOCCCN*)C(=O)O; CH3O(CH2CH2O)11CH2CH2CO = COCCOCCOCCOCCOCCOCCOCCOCCOCCOCCOCCOCCC(=O)*; X4 = O=C(O)CCCCCCCCCCCCCCCCC(=O)N[C@@H](CC(=O)NCCCOCCOCCOCCCN*)C(=O)O; X11 = O=C(O)CCCCCCCCCCCCC(=O)N[C@@H](CCC(=O)NCCCOCCOCCOCCCN*)C(=O)O; Trp(1-CH2COOH) = N[C@@H](Cc1cn(CC(=O)O)c2ccccc12)C(=O)O; X14 = O=C(O)CCCCCCCCCCNC(=O)CCC(=O)NCCCOCCOCCOCCCN*; Phe(3,4,5-F3) = N[C@@H](Cc1cc(F)c(F)c(F)c1)C(=O)O; X26 = O=C(O)Cn1cc(CC(N[*:1])C(=O)[*:2])c2ccccc21; NH(CH2)16COOH = O=C(O)CCCCCCCCCCCCCCCCN*; Phe(4-F) = N[C@@H](Cc1ccc(F)cc1)C(=O)O; d(cisHyp) = O=C(O)[C@H]1C[C@@H](O)CN1; Hyp = O=C(O)[CH]1C[CH](O)CN1; NMeF = CN[C@@H](Cc1ccccc1)C(=O)O; dHyp = O=C(O)[C@H]1C[C@H](O)CN1; Undecanoyl = CCCCCCCCCCC(=O)*; NMeNle = CCCC[CH](NC)C(=O)O; Pip = O=C(O)[C@@H]1CCCCN1; dPip = O=C(O)[C@H]1CCCCN1; NMeA = CN[CH](C)C(=O)O; Pra = C#CC[C@H](N)C(=O)O; Dab = NCC[CH](N)C(=O)O; Dap = NC[CH](N)C(=O)O

Biological target: T1, PD-L1 (Homo sapiens, UniProt Q9NZQ7)
T1 construct: hPDL1(19-239)-TVMV-His; made in house; host or cells: HEK293T
T1 sequence (Q9NZQ7 with tags, fused parts or gaps): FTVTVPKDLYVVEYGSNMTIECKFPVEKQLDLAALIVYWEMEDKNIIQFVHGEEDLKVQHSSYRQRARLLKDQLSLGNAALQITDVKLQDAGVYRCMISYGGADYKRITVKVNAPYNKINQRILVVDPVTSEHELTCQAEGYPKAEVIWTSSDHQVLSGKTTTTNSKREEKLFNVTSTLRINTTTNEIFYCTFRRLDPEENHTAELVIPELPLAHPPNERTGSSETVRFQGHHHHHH
Assay: PD-1/PD-L1 Homogenous Time-Resolved Fluorescence (HTRF) binding assay (PD-1-Ig/PD-L1-His)
Settings: inhibition of PD-1-Ig binding to PD-L1-TVMV-His, read-out: HTRF IC50
Outline: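 Inhibitors pre-incubated 15 min with PD-L1-His (10 nM final), then PD-1-Ig (20 nM final) added for 15 min in dPBS/0.1% BSA/0.05% Tween-20. Eu-cryptate anti-Ig (1 nM) and APC anti-His (20 nM) added, 30 min equilibration, 665/620 nm HTRF ratio read.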

Row | SMILES | IC50 (value given as range class) | IC50 (value given as number)
1 | C#CC[C@H](NC(=O)CNC(=O)[C@@H]1CSCC(=O)N[C@@H](Cc2ccc(O)cc2)C(=O)N(C)[C@@H](C)C(=O)N[C@@H](CC(N)=O)C(=O)N2CCC[C@H]2C(=O)N[C@@H](CN)C(=O)N[C@@H](CC(C)C)C(=O)N2C[C@H](O)C[C@H]2C(=O)N[C@@H](Cc2c[nH]c3ccccc23)C(=O)N[C@@H](CO)C(=O)N[C@@H](Cc2cn(CC(=O)O)c3ccccc23)C(=O)N(C)[C@@H](CCCC)C(=O)N(C)[C@@H](CCCC)C(=O)N[C@@H](CCC(=O)O)C(=O)N1)C(N)=O [INT 1400I, ClAc-Tyr-mAla-Asn-Pro-Dap-Leu-Hyp-Trp-Ser-[(S)-2-amino-3-(1-(carboxymethyl)-1H-indol-3-yl)propanoic acid]-mNle-mNle-E-Cys-Gly-[(S)-propargylglycine]] ({CH2CO}-Y[NMeA]NP[Dap]L[Hyp]WS[Trp(1-CH2COOH)][NMeNle][NMeNle]ECG[Pra]-NH2; thioether N-14) | 10 to 99 nM | 
2 | C#CC[C@H](NC(=O)CNC(=O)[C@@H]1CSCC(=O)N[C@@H](Cc2ccc(O)cc2)C(=O)N(C)[C@@H](C)C(=O)N[C@@H](CC(=O)O)C(=O)N2CCC[C@H]2C(=O)N[C@@H](Cc2c[nH]cn2)C(=O)N[C@@H](CCCCN)C(=O)N2C[C@H](O)C[C@H]2C(=O)N[C@@H](Cc2c[nH]c3ccccc23)C(=O)N[C@@H](CCCCN)C(=O)N[C@@H](Cc2cn(CC(=O)O)c3ccccc23)C(=O)N(C)[C@@H](CCCC)C(=O)N(C)[C@@H](CCCC)C(=O)N[C@@H](CCC(=O)O)C(=O)N1)C(=O)N[C@@H](CC(=O)O)C(N)=O [INT 1400E] ({CH2CO}-Y[NMeA]DPHK[Hyp]WK[Trp(1-CH2COOH)][NMeNle][NMeNle]ECG[Pra]D-NH2; thioether N-14) | 0.3 to 9.9 nM | 
3 | CCCCC1C(=O)N(C)C(CCCC)C(=O)NC(CC(C)C)C(=O)NC(C(=O)NCC(=O)NCCCCCCCCCCCCCCCCC(=O)O)CSCC(=O)NC(Cc2ccc(O)cc2)C(=O)N(C)C(C)C(=O)NC(CC(N)=O)C(=O)N2CCCC2C(=O)NC(CN)C(=O)NC(CC(C)C)C(=O)N2CC(O)CC2C(=O)NC(Cc2c[nH]c3ccccc23)C(=O)NC(CCN)C(=O)NC(Cc2cn(CC(=O)O)c3ccccc23)C(=O)N1C (stereo not drawn) [Example 11188] ({CH2CO}-Y[NMeA]NP[Dap]L[Hyp]W[Dab][X26][NMeNle][NMeNle]LCG-{NH(CH2)16COOH}; thioether N-14; configuration not given here) |  | 280 nM
4 | CCCC[C@H]1C(=O)N(C)[C@@H](CCCC)C(=O)N[C@@H](CC(C)C)C(=O)N[C@H](C(=O)NCCCOCCOCCOCCCNC(=O)CCC(=O)NCCCCCCCCCCC(=O)O)CSCC(=O)N[C@@H](Cc2ccc(O)cc2)C(=O)N(C)[C@@H](C)C(=O)N[C@@H](CC(N)=O)C(=O)N2CCC[C@H]2C(=O)N[C@@H](CN)C(=O)N[C@@H](CCC(N)=O)C(=O)N2C[C@H](O)C[C@H]2C(=O)N[C@@H](Cc2c[nH]c3ccccc23)C(=O)N[C@@H](CO)C(=O)N[C@@H](Cc2cn(CC(=O)O)c3ccccc23)C(=O)N1C [Example 11086] ({CH2CO}-Y[NMeA]NP[Dap]Q[Hyp]WS[Trp(1-CH2COOH)][NMeNle][NMeNle]LC-X14; thioether N-14) |  | 19 nM
5 | CCCC[C@H]1C(=O)N2C[C@H](O)C[C@@H]2C(=O)N[C@@H](CC(=O)O)C(=O)N[C@@H](C(C)C)C(=O)N(C)[C@@H](Cc2ccccc2)C(=O)N[C@@H](Cc2ccc(O)cc2)C(=O)N2CCCC[C@@H]2C(=O)N[C@@H](Cc2c[nH]c3ccccc23)C(=O)N[C@@H](Cc2ccc(O)cc2)C(=O)N[C@@H](CC(C)C)C(=O)N[C@H](C(=O)NCC(=O)NCC(=O)NCC(=O)N[C@@H](CCCCNC(=O)CCOCCOCCOCCOCCOCCOCCOCCOCCOCCOCCOCCOC)C(N)=O)CSCC(=O)N[C@@H](Cc2cc(F)c(F)c(F)c2)C(=O)N(C)[C@@H](Cc2ccccc2)C(=O)N1C [Example 3624] ({CH2CO}-[Phe(3,4,5-F3)][NMeF][NMeNle][d(cisHyp)]DV[NMeF]Y[dPip]WYLCGGGK(CH3O(CH2CH2O)11CH2CH2CO)-NH2; thioether N-13) | 0.3 to 9.9 nM | 
6 | CCCC[C@H]1C(=O)N(C)[C@@H](CCCC)C(=O)N[C@@H](CC(C)C)C(=O)N[C@H](C(=O)NCC(=O)N[C@@H](CC(=O)NCCCOCCOCCOCCCNC(=O)CC[C@H](NC(=O)CCCCCCCCCCCCCCCCC(=O)O)C(=O)O)C(=O)O)CSCC(=O)N[C@@H](Cc2ccc(O)cc2)C(=O)N(C)[C@@H](C)C(=O)N[C@@H](CC(=O)O)C(=O)N2CCC[C@H]2C(=O)N[C@@H](CN)C(=O)N[C@@H](CCC(=O)O)C(=O)N2C[C@H](O)C[C@H]2C(=O)N[C@@H](Cc2c[nH]c3ccccc23)C(=O)N[C@@H](CCN)C(=O)N[C@@H](Cc2cn(CC(=O)O)c3ccccc23)C(=O)N1C [Example 11178] ({CH2CO}-Y[NMeA]DP[Dap]E[Hyp]W[Dab][Trp(1-CH2COOH)][NMeNle][NMeNle]LCGD(X6)-OH; thioether N-14) | 0.3 to 9.9 nM | 
7 | CCCC[C@H]1C(=O)N(C)[C@@H](CCCC)C(=O)N[C@@H](CC(C)C)C(=O)N[C@@H](C(=O)NCC(=O)N[C@@H](CC(=O)O)C(=O)NCCCOCCOCCOCCCNC(=O)C[C@H](NC(=O)CCCCCCCCCCCCCCCCC(=O)O)C(=O)O)CSCC(=O)N[C@@H](Cc2ccc(O)cc2)C(=O)N(C)[C@@H](C)C(=O)N[C@@H](CC(N)=O)C(=O)N2CCC[C@@H]2C(=O)N[C@@H](CN)C(=O)N[C@@H](CC(C)C)C(=O)N2C[C@@H](O)C[C@@H]2C(=O)N[C@@H](Cc2c[nH]c3ccccc23)C(=O)N[C@@H](CCN)C(=O)N[C@@H](Cc2cn(CC(=O)O)c3ccccc23)C(=O)N1C [Example 11237] ({CH2CO}-Y[NMeA]N[dP][Dap]L[dHyp]W[Dab][Trp(1-CH2COOH)][NMeNle][NMeNle]L[dC]GD-X4; thioether N-14) | 10 to 99 nM | 
8 | CCCC[C@H]1C(=O)N(C)[C@@H](CCCC)C(=O)N[C@@H](CC(C)C)C(=O)N[C@H](C(=O)N[C@@H](Cc2cn(CCC(NC(=O)CCCCCCCCCCCCCCCCC(=O)O)C(=O)O)nn2)C(=O)O)CSCC(=O)N[C@@H](Cc2ccc(O)cc2)C(=O)N(C)[C@@H](C)C(=O)N[C@@H](CC(N)=O)C(=O)N2CCC[C@H]2C(=O)N[C@@H](CN)C(=O)N[C@@H](CC(C)C)C(=O)N2C[C@H](O)C[C@H]2C(=O)N[C@@H](Cc2c[nH]c3ccccc23)C(=O)N[C@@H](CCN)C(=O)N[C@@H](Cc2cn(CC(=O)O)c3ccccc23)C(=O)N1C (stereo partly drawn) [Example 13129] | 10 to 99 nM | 
9 | CCCC[C@H]1C(=O)N(C)[C@@H](CCCC)C(=O)N[C@@H](CC(C)C)C(=O)N[C@H](C(=O)NCC(=O)N[C@@H](CC(=O)O)C(=O)NCCCOCCOCCOCCCNC(=O)CC[C@H](NC(=O)CCCCCCCCCCCCC(=O)O)C(=O)O)CSCC(=O)N[C@@H](Cc2ccc(O)cc2)C(=O)N(C)[C@@H](C)C(=O)N[C@@H](CC(N)=O)C(=O)N2CCC[C@H]2C(=O)N[C@@H](CN)C(=O)N[C@@H](CC(C)C)C(=O)N2C[C@H](O)C[C@H]2C(=O)N[C@@H](Cc2c[nH]c3ccccc23)C(=O)N[C@@H](CCN)C(=O)N[C@@H](Cc2cn(CC(=O)O)c3ccccc23)C(=O)N1C [Example 11254] ({CH2CO}-Y[NMeA]NP[Dap]L[Hyp]W[Dab][Trp(1-CH2COOH)][NMeNle][NMeNle]LCGD-X11; thioether N-14) | 0.3 to 9.9 nM | 
10 | CCCC[C@H]1C(=O)N(C)[C@@H](CCCC)C(=O)N[C@@H](CC(C)C)C(=O)N[C@H](C(=O)NCC(=O)N[C@@H](CC(=O)NCCCOCCOCCOCCCNC(=O)CC[C@H](NC(=O)CCCCCCCCCCCCCCCCC(=O)O)C(=O)O)C(=O)O)CSCC(=O)N[C@@H](Cc2ccc(O)cc2)C(=O)N2CCCC[C@H]2C(=O)N[C@@H](CC(N)=O)C(=O)N2CCC[C@H]2C(=O)N[C@@H](CN)C(=O)N[C@@H](CC(C)C)C(=O)N2C[C@H](O)C[C@H]2C(=O)N[C@@H](Cc2c[nH]c3ccccc23)C(=O)N[C@@H](CCN)C(=O)N[C@@H](Cc2cn(CC(=O)O)c3ccccc23)C(=O)N1C [Example 11262] ({CH2CO}-Y[Pip]NP[Dap]L[Hyp]W[Dab][Trp(1-CH2COOH)][NMeNle][NMeNle]LCGD(X6)-OH; thioether N-14) | 10 to 99 nM | 
11 | CCCCCCCCCCC(=O)NCCCC[C@H](NC(=O)[C@H](CC(=O)O)NC(=O)CNC(=O)[C@@H]1CSCC(=O)N[C@@H](Cc2ccc(O)cc2)C(=O)N(C)[C@@H](C)C(=O)N[C@@H](CC(N)=O)C(=O)N2CCC[C@H]2C(=O)N[C@@H](CCN)C(=O)N[C@@H](CC(C)C)C(=O)N2C[C@H](O)C[C@H]2C(=O)N[C@@H](Cc2c[nH]c3ccccc23)C(=O)N[C@@H](CO)C(=O)N[C@@H](Cc2c[nH]c3ccccc23)C(=O)N(C)[C@@H](CCCC)C(=O)N(C)[C@@H](CCCC)C(=O)N[C@@H](CCCNC(=N)N)C(=O)N1)C(N)=O [Example 11005] ({CH2CO}-Y[NMeA]NP[Dab]L[Hyp]WSW[NMeNle][NMeNle]RCGDK(Undecanoyl)-NH2; thioether N-14) | 10 to 99 nM | 
12 | CCCC[C@H]1C(=O)N(C)[C@@H](CCCC)C(=O)N[C@@H](CC(C)C)C(=O)N[C@H](C(=O)NCC(=O)N[C@@H](CCC(=O)NCCCOCCOCCOCCCNC(=O)CC[C@H](NC(=O)CCCCCCCCCCCCCCCCC(=O)O)C(=O)O)C(=O)O)CSCC(=O)N[C@@H](Cc2ccc(F)cc2)C(=O)N2CCCC[C@H]2C(=O)N[C@@H](CC(=O)O)C(=O)N2CCC[C@H]2C(=O)N[C@@H](CN)C(=O)N[C@@H](CCC(=O)O)C(=O)N2C[C@H](O)C[C@H]2C(=O)N[C@@H](Cc2c[nH]c3ccccc23)C(=O)N[C@@H](CCN)C(=O)N[C@@H](Cc2cn(CC(=O)O)c3ccccc23)C(=O)N1C [Example 11263] ({CH2CO}-[Phe(4-F)][Pip]DP[Dap]E[Hyp]W[Dab][Trp(1-CH2COOH)][NMeNle][NMeNle]LCGE(X6)-OH; thioether N-14) | 0.3 to 9.9 nM | 
